Measured values published in patent publication US4963585A, “Compound, WF11605 and derivative thereof” (Fujisawa Pharmaceutical Company, Ltd., priority 1988, dated 1990).
In brackets after ≈: the same amount, converted by molar mass.

Legend:
[1] = tested on: FMLP-induced degranulation in rabbit PMNLs; assay: FMLP-induced degranulation (beta-glucuronidase release) of rabbit PMNLs; assay type: cell-based; settings: Oryctolagus cuniculus, PMNL; FMLP 7×10^-10 M, Cytochalasin B 10^-5 M; read-out: 50% inhibitory concentration (IC50), FMLP-induced degranulation
Experimental: (§1) PMNLs were collected from the peritoneal exudates of male Japanese White rabbits. At 16 hr after the injection of 0.1% glycogen (400 ml/animal, i.p.), the peritoneal cells were collected and washed with Eagle's minimum essential medium (MEM) and resuspended in the same medium. Over 90% of the cells were judged as PMNLs after Giemsa staining .
(§2) PMNL suspension (5×10^6 cells/ml) was incubated with test substance or vehicle at 37° C. for 5 min in plastic tubes. Leukotriene B4 (LTB4, 7×10^-8 M, Cayman Chemical Co.,), […] (FMLP, 7×10^-10 M, Sigma) or platelet activating factor (PAF, 7×10^-7 M, Sigma) together with Cytochalasin B (10^-5 M, Sigma) were added and then incubated for 5 min at 37° C. Incubation was terminated by transfer to an ice bath followed by rapid centrifugation. The cell-free supernatants were subsequently assayed for the activity of beta-glucuronidase.
(§3) The assay mixture consisted of 300 μl of acetate buffer (0.1M, pH 4.6), 100 μl of sample (supernatant obtained above) and 50 μl of methylumbelliferyl-beta-D-glucuronide (1 mM, NAKARAI CHEMICAL Co.,) as substrate. […] The fluorescence (excitation; 365 nm, emission; 455 nm) of each sample was determined.
(§4) The results are expressed as percent of total beta-glucuronidase released where total are the amount of the enzyme in the cells released by 0.1% Triton X-100.

Mucor rouxianus Wehmer = assay: Antimicrobial activity, broth dilution method; assay type: cell-based; settings: Sabouraud 25° C. 40 hrs
Experimental: (§5) Antimicrobial activity of WF11605 was determined by broth dilution method in a conventional manner.
^2 Sabouraud 25° C. 40 hrs

[2] = molecular target: T1, ^3 H-LTB4 receptor (rabbit PMNLs) (Oryctolagus cuniculus, UniProt G1U4T1); assay: Inhibition of binding of ^3 H-LTB4 to freeze-thawed PMNLs (^3 H-LTB4 receptor assay); settings: 4° C., 30 min; for ^3 H-LTB4 specific binding: control 1684 dpm
T1 construct: endogenous in cells; host or cells: freeze-thawed polymorphonuclear leukocytes (PMNLs) from peritoneal exudate of rabbit (glycogen-elicited, male Japanese White rabbits)
T1 sequence (G1U4T1 1-363): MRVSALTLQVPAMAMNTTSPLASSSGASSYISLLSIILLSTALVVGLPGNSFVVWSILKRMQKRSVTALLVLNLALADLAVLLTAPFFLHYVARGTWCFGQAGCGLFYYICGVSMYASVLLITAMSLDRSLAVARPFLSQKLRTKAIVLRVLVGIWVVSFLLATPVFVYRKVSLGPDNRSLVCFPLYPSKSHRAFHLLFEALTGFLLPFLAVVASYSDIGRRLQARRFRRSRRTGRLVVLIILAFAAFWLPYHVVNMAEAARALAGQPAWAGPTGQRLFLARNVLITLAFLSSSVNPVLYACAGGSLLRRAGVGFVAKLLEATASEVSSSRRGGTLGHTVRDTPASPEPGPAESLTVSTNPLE
Experimental: PMNLs collected from the peritoneal exudate of rabbit were suspended at a concentration of 5×10^6 /ml in Eagle's MEM, stored at -20° C. and used within 2 weeks. On use, the PMNLs were thawed at room temperature and kept at 4° C.
^3 H-LTB4 ((5,6,8,9,11,14,15 (n)-^3 H)Leukotriene B4, 20 μCi/ml, Amersham Co., Japan) was diluted 20-fold with 3×10^-9M nonradioactive LTB4 in Hanks' balanced salt solution containing 10 mM N-(2-Hydroxyethyl)-piperazine-N'-2-ethanesulfonic acid, pH 7.4 (HBSS-HEPES). Fifteen microlitter of the solution was added to 60 μl HBSS-HEPES at 4° C. and then 25 μl of competitor or corresponding vehicle and 150 μl of freeze-thrawed cells (5×10^6 /ml) were also added, followed by vigorous mixing and allowing to stand for 30 min at 4° C. The resultant mixture was immediately filtered through Whatman GF/C glass filter to separate free and bound ^3 H-LTB4 using cell harvester (BRANDELL M-24R 5/8). The filter paper was quickly washed 5 times by 150 μl of cold HBSS-HEPES, dried, cut off and placed in a scintillation vial. To the vial was added 3 ml of toluene-based scintillation fluid and then the radioactivity was counted. All assay were carried out in duplicate. Specific binding defined as total binding minus non specific binding (with 0.1 μM LTB4), was about 60% of total binding.

[3] = tested on: PAF-induced degranulation in rabbit PMNLs; assay: PAF-induced degranulation (beta-glucuronidase release) of rabbit PMNLs; assay type: cell-based; settings: Oryctolagus cuniculus, PMNL; PAF 7×10^-7 M, Cytochalasin B 10^-5 M; read-out: 50% inhibitory concentration (IC50), PAF-induced degranulation
Experimental: as §1, §2, §3, §4

Solubility = assay type: physicochemical; settings: free form
certain yeasts = assay: Antimicrobial activity, broth dilution method (summary); assay type: cell-based
Experimental: as §5

[4] = tested on: LTB4-induced degranulation in rabbit PMNLs; assay: LTB4-induced degranulation (beta-glucuronidase release) of rabbit PMNLs; assay type: cell-based; settings: Oryctolagus cuniculus, PMNL, LTB4 7×10^-8 M, Cytochalasin B 10^-5 M
Experimental: as §1, §2
The assay mixture consisted of 300 μl of acetate buffer (0.1M, pH 4.6), 100 μl of sample (supernatant obtained above) and 50 μl of methylumbelliferyl-beta-D-glucuronide (1 mM, NAKARAI CHEMICAL Co.,) as substrate. The reaction was started by addition of the substrate and terminated after 15 min at 37° C. by the addition of 2 ml glycine buffer (0.1M, pH 10.32). The fluorescence (excitation; 365 nm, emission; 455 nm) of each sample was determined.
as §4

[5] = tested on: Torulopsis colliculsa IAM-4426; assay: Antimicrobial activity, broth dilution method; assay type: cell-based; settings: Sabouraud 30° C. 20 hrs
Experimental: as §5
(§6) ^1 Sabuoraud 30° C. 20 hrs

Candida utilis = assay: Antimicrobial activity, broth dilution method; assay type: cell-based; settings: Williopsis jadinii; Sabouraud 30° C. 20 hrs
Experimental: as §5, §6

[6] = tested on: Cryptococcus albidus AHU-3922; assay: Antimicrobial activity, broth dilution method; assay type: cell-based; settings: Naganishia albida, AHU3922; Sabouraud 30° C. 20 hrs
Experimental: as §5, §6

Candida krusei OUT-6007 = assay: Antimicrobial activity, broth dilution method; assay type: cell-based; settings: Pichia kudriavzevii, OUT6007; Sabouraud 30° C. 20 hrs
Experimental: as §5, §6

Candida albicans FP633 = assay: Antimicrobial activity, broth dilution method; assay type: cell-based; settings: Sabouraud 30° C. 20 hrs
Experimental: as §5, §6

[7] = Acute toxicity, intraperitoneal, mice; settings: mouse, in vivo, ip, female, 4 weeks old
Excerpt: The WF11605 was intraperitoneally given to mice (female, 4 weeks old). From the test results, LD50 of WF11605 was more than 1 g/kg.

SMILES: CC(=O)OC1CC2(C)C3=C(CCC2C(C)(C)C1OC1OC(CO)C(O)C(O)C1O)C1(C)CC(=O)C(C)(C(C)C(C)C)C(C(=O)O)C1(C)CC3 (stereo not shown) [WF11605]
- IC50 [1]: > 100 µM
- MIC (Mucor rouxianus Wehmer): 200 µg/mL (≈ 289 µM)
- ^3 H-LTB4 specific binding ([2]; WF11605 7 × 10^-6 M): 596 dpm
- inhibition at 7 µM ([2]; WF11605 7 × 10^-6 M, read-out: inhibition of 3H-LTB4 specific binding): 64.6%
- ^3 H-LTB4 specific binding ([2]; WF11605 7 × 10^-7 M): 1264 dpm
- inhibition at 0.7 µM ([2]; WF11605 7 × 10^-7 M, read-out: inhibition of 3H-LTB4 specific binding): 24.9%
- IC50 [3]: > 100 µM
- Solubility (Solubility; H2 O, methanol, ethanol): sparingly soluble
- Solubility (Solubility; chloroform, ether): insoluble
- Antimicrobial activity (certain yeasts): has antimicrobial activity against certain yeasts
- IC50 ([4]; read-out: 50% inhibitory concentration (IC50), LTB4-induced degranulation): 3 µM
- inhibition at 100 µM ([4]; WF11605 10^-4 M, read-out: Inhibition of total beta-glucuronidase release): 93.6%
- inhibition at 10 µM ([4]; WF11605 10^-5 M, read-out: Inhibition of total beta-glucuronidase release): 66.9%
- inhibition at 1 µM ([4]; WF11605 10^-6 M, read-out: Inhibition of total beta-glucuronidase release): 30.3%
- inhibition at 0.1 µM ([4]; WF11605 10^-7 M, read-out: Inhibition of total beta-glucuronidase release): 17.5%
- inhibition at 0.01 µM ([4]; WF11605 10^-8 M, read-out: Inhibition of total beta-glucuronidase release): 12.2%
- MIC [5]: 50 µg/mL (≈ 72.2 µM)
- MIC (Candida utilis): 50 µg/mL (≈ 72.2 µM)
- MIC [6]: 100 µg/mL (≈ 144 µM)
- MIC (Candida krusei OUT-6007): 25 µg/mL (≈ 36.1 µM)
- MIC (Candida albicans FP633): 25 µg/mL (≈ 36.1 µM)
- LD50 [7]: > 1000 mg/kg
